# Results from US4380535A, “Enkephalin degrading enzyme inhibitors” (priority 1981, dated 1983).
# Counter-ions that a name gives are not always drawn.
# Legend:
# opiate receptor = opiate receptor affinity, 3H-naloxone displacement in rat brain homogenate (modified Chang); format: binding; settings: 3H-naloxone displacement (ID50) relative to morphine, with NaCl
# [1] = system: enkephalin-degrading aminopeptidase; test: inhibition of brain enzyme degradation of 3H-Leu-enkephalin (solubilized rat brain membrane preparation, TLC); format: biochemical; settings: 1.0×10^-3 M inhibitor, 5.0×10^-4 M 3H-Leu-enkephalin, 37° C., 1 hour; control 52%
# Experimental: The ability of the compounds of the invention to inhibit the brain enzyme degradation of enkephalins was studied in the following test procedure.
# Brain enzymes from rats are used in the procedure and for this purpose solubilized rat brain membrane preparation, prepared as follows, is used:
# Brains from young male Charles River Co. rats were homogenized in 30 volumes 50 mM Tris pH 7.7 with a Polytron (Brinkmann). The homogenate was centrifuged at 50,000 x g for 15 min. The supernatant was discarded the pellet resuspended in 50 mM Tris pH 7.7 and centrifuged at 50,000 x g for 15 min. The resultant pellet was resuspended, centrifuged and washed 3 additional times as described above. The membrane pellet was solubilized by resuspension in 15 volumes 50 mM Tris pH 7.7, 1% Triton X-100 and incubation at 37° C. for 45 min. […]
# This preparation is incubated at 37° C. for 1 hour in the presence of 5.0×10^-4 M ^3 H-Leu-enkephalin in 50 mM tris buffer and 1.0×10^-3 M of the inhibitor to be tested. […] Markers of Leu-enkephalin (LE), tyrosinge (T) and tyrosine-glycine-glucine (TGG) are run with all samples and the relevant areas are scraped into scintillation vials and counted. […]
# When N-Me-Tyr-D-Cys-Gly-N-MePhe-Thz-NH2 is tested in this procedure, the percentage of hydrolysis poructs (analyzed by TLC of tagged Leu-enkephalin) is as follows: […]
# [2] = system: phenylbenozquinone-induced writhing; test: phenylbenzoquinone-induced writhing test (modified Siegmund); format: in vivo; settings: mice, subcutaneous administration, at 15 minutes; limits (10.9-29.7)
# Experimental: Biol. Med., 95, 729-731 (1957). According to this procedure, test compound is administered at various doses to ten mice per dose level. The animals then receive intraperitoneal injection with 0.25 ml of the writhing agonist (a 0.02% solution of benzoquinone) 5 min before the beginning of a pre-selected, 10 min observation period. Typical observation periods include 10 to 20, 25 to 35, 40 to 50 and 55 to 65 min following administration of the test compound. The mice are observed during the observation period for the presence of an all-or-none writhing reaction.
# If the compound is active, its dose response and ED50 value are determined according to the method of D. J. Finney (Statistical Methods in Biological Assay, Griffin and Co., London, 1964).
compound,measurement,setting,value
"CN[C@@H](Cc1ccc(O)cc1)C(=O)N[C@H](CS)C(=O)NCC(=O)N(C)[C@@H](Cc1ccccc1)C(=O)N1CSC[C@H]1C(N)=O [N-Me-Tyr-D-Cys-Gly-N-MePhe-Thz-NH2, N^α -Methyl-L-tyrosyl-D-cysteinyl-glycyl-N-methyl-L-phenylalanyl-L-thiazolidine-4-carboxamide, acetate salt]",relative displacement potency as compared to morphine (1),opiate receptor,2.6
same,percentage of hydrolysis products: Tyr,[1],14%
same,ED50,[2],18 mg/kg
